Results as given in patent EP0033241A2, “Pharmaceutical compositions for rectal administration” (priority 1980, dated 1981).
Structures can show the parent of a compound that is named as a salt.

Tests used:
in vivo [1] = assay: in vivo; parameters: species or system SD strain male rats; conditions: rat
From the text: The numeral 25 in the term "POE (25)" designates the average number of added moles of POE.

in vivo [2] = conditions: rat, im, 50 mg/kg, AUC^°6
[3] = AUC 0 to 4 hours of cefsulodin (sodium) suppositories with polyoxyethylene cholesterol ethers (Experiment Example 4); assay type: in vivo, rats; conditions: rat, plasma, 20 mg/kg, rectal suppository 50 mg, 10 % cefsulodin (sodium), Witepsol H-5
Experimental: The anuses were closed with an adhesive agent, and blood samples were taken from the tail veins with time elapsed to determine quantitatively the plasma levels of the compounds having a β-lactam ring by means of the biological assay method.
By incorporating 10 % of cefsulodin (sodium) and 5 % of polyoxyethylene cholesterol ether as shown in Table 5 into Witepsol H-5 used as an excipient, suppositories (50 mg each) were prepared, and administered rectally to rats, in the same manner as in Experiment Example 1, to determine quantitatively the concentration levels of the drug substance in plasma, thereby calculating AUC over the period of 0 to 4 hours. The dosage was 20 mg/Kg.

CO/N=C(\C(=O)N[C@@H]1C(=O)N2C(C(=O)O)=C(COC(C)=O)CS[C@H]12)c1csc(N)n1 [HR-756, cefotaxime] showed an AUC (in vivo [1]; im) of 144000 ng·h/mL.

Work on Cc1nnc(SCC2=C(C(=O)O)N3C(=O)[C@@H](NC(=O)Cn4cnnn4)[C@H]3SC2)s1 [Cefazolin, cefazolin] yielded an AUC (in vivo [1]; im) of 348000 ng·h/mL.

CC1(C)S[C@@H]2[C@H](NC(=O)C(c3ccccc3)S(=O)(=O)O)C(=O)N2[C@H]1C(=O)O (stereo partly shown) [Sulbenicillin, sulbenicillin] gave an AUC (in vivo [1]) of 92800 ng·h/mL and an AUC (in vivo [1]; im) of 192000 ng·h/mL.

With CO/N=C(\C(=O)N[C@@H]1C(=O)N2C(C(=O)O)=CCS[C@H]12)c1csc(N)n1 [FK-749, cephthizoxime] the AUC (in vivo [1]; im) was 77800 ng·h/mL.

In the case of CN(C)CCn1nnnc1SCC1=C(C(=O)O)N2C(=O)[C@@H](NC(=O)Cc3csc(N)n3)[C@H]2SC1 [Cefotiam, cefotiam], the AUC (in vivo [1]; im) is reported as 38700 ng·h/mL.

In the case of CO/N=C(\C(=O)N[C@@H]1C(=O)N2C(C(=O)O)=C(CSc3nnnn3C)CS[C@H]12)c1csc(N)n1 [Cefmenoxime (1/2HCl), 7β-[2-(2-aminothiazol-4-yl)-[Z]-2-methoxyimino-acetamide]-3-[(1-methyl-1H-tetrazol-5-yl)thiomethyl]-ceph-3-em-4-carboxylate.l/2hydrochloride], the AUC (in vivo [1]; im) is reported as 190000 ng·h/mL and the AUC at 6 h (in vivo [2]) is reported as 190000 ng·h/mL.

With CC1(C)S[C@@H]2[C@H](NC(=O)[C@H](N)c3ccccc3)C(=O)N2[C@H]1C(=O)O [Ampicillin, ampicillin] the AUC (in vivo [1]; im) was 14800 ng·h/mL.

Molecule NC(=O)c1cc[n+](CC2=C(C(=O)O)N3C(=O)[C@@H](NC(=O)[C@@H](c4ccccc4)S(=O)(=O)[O-])[C@H]3SC2)cc1 [Cefsulodin sodium, 3-(4-carbamoyl-l-pyridinio-methyl)-7β-(D-α-sulfophenylacetamide)-ceph-3-em-4-carboxylate monosodium salt] has an AUC (in vivo [1]; im) of 54000 ng·h/mL, an AUC(0-t) at 4 h ([3]; 5 % POE (10) cholesterol ether) of 30400 ng·h/mL and an AUC(0-t) at 4 h ([3]; 5 % POE (20) cholesterol ether) of 43000 ng·h/mL. It also gave an AUC(0-t) at 4 h ([3]; 5 % POE (25) cholesterol ether) of 35900 ng·h/mL, an AUC(0-t) at 4 h ([3]; 5 % POE (30) cholesterol ether) of 37900 ng·h/mL and an AUC(0-t) at 4 h ([3]; no polyoxyethylene cholesterol ether (None)) of 500 ng·h/mL.

Molecule CC1(C)S[C@@H]2[C@H](/N=C/N3CCCCCC3)C(=O)N2[C@H]1C(=O)O [Mecillinam, 6a-[(hexahydro-lH-azepin-l-yl)-methyleneamino]penicillanic acid.sodium salt] has an AUC (in vivo [1]; im) of 105000 ng·h/mL.
